Measurements published in US20230101743A1, “SUBSTITUTED TRIAZINE COMPOUNDS AND USES THEREOF” (MUSC FOUNDATION FOR RESEARCH DEVELOPMENT, priority 2020, published 2023).

Assays:
Intracellular APOB = Intracellular APOB accumulation (LDL uptake, pulse-chase, immunofluorescence); assay type: cell-based; details: human iPSC-derived hepatocytes
Description: (§1) C. Human iPSC-derived hepatocytes (iPSC-Heps) were treated with 2 μg/mL of DL-1 or equivalent concentration of DMSO for 24 hours. In FIG. 7A, APOB mRNA level was determined using real-time qPCR. In FIG. 7B Intracellular APOB, LDLR, and HSP90 protein levels were determined via immunoblot; Quantification of biological replicates of immunoblots. Data are shown as mean±SD of four replicates (n=4). In FIG. 12A LDL uptake assay was performed by pre-treating cells with 2 μg/mL of DL-1, 20 μM of Atorvastatin, and equivalent concentration of DMSO for 24 hours followed by 4 hours of pHrodo-LDL exposure; LDL endocytosis was determined and quantified by fluorescence image; data are shown as mean±SD of triplicates (n=3). In FIG. 12B, iPSC-Heps were pre-treated with 3, 12, and 48 μg/mL of DL-9 for 2 hours, and cells were pulse-labeled with [^35S]methionine for 10 minutes and chased for 120 mins with or without DL-9 treatment; intracellular ^35S-APOB were determined by immunoprecipitation using anti-APOB antibody; band density was quantified and normalized with 5% of input (n=3). […]
Immunoprecipitation of cell lysates was performed using protein G magnet beads (ThermoFisher) and anti-APOB (LDL20/17, Mabtech) antibodies. […] Expression levels were quantified via integrated intensity normalized by 5% of input of each sample. […] Signals were detected using HRP-conjugated secondary antibodies. […]

[1] = system: hepatic markers (ALB, AFP, HNF4α, SLC10A1, ASGR1); experiment: Hepatic marker expression (real-time qPCR, immunofluorescence); assay type: cell-based, human; details: 2 μg/mL, 24 hours
Description: C. Human iPSC-derived hepatocytes were treated with 2 μg/mL of DL-1 for 24 hours. (A) mRNA level of hepatic markers (ALB, AFP, HNF4α, SLC10A1, ASGR1) were determined via real-time qPCR. (B) Cells were fixed and immunofluorescence was performed to determine HNF4 and ALB level. […] Data are shown as mean SEM of […] (n=4).
For hepatic marker expression analysis, human iPSC-derived hepatocytes (Day 20) were treated with 2 μg/mL of DL-1 for 24 hours. Cells were fixed in 4% paraformaldehyde (PFA) and penetrated with 0.1% Triton-X-100. Cells were incubated with primary antibodies (ALB, 1:1000, Dako; HNF4-a, 1:1000, Santa Cruz) overnight at 4 degrees and then switched to secondary antibodies (Alexa Flour 488 goat anti-rabbit, 1:1000, Invitrogen; Alexa Flour 594 rabbit anti-mouse, 1:2000, Invitrogen). Images were taken using Bio-Rad Zoe™ Fluorescent Cell Imager (Bio-Rad). For intracellular APOB localization, iPSC-heps were treated with 0, 3, 12, 48 μg/mL of DL-9 for 24 hours, and cells were fixed in 4% PFA followed by 0.1% Triton-X-100 penetration. […] Integrated fluorescent intensity was normalized by total cell counts, which is determined by DAPI staining.
(§2) Human iPSC-derived hepatocytes (Day 20) were treated with 2 μg/mL of DL-1 for 24 hours. […] Quantitative real-time PCR was performed on a BioRad CFX384 real-time PCR machine.

APOB mRNA = APOB mRNA level by real-time qPCR; assay type: cell-based, human; details: 2 μg/mL, 24 hours
Description: G. Human iPSC-derived hepatocytes were treated with 2 μg/mL of DL-1 or equivalent concentration of DMSO for 24 hours. […] (A) APOB mRNA level was determined using real-time qPCR. (B) Intracellular APOB, LDLR, and HSP90 protein levels were determined via immunoblot. (C) Quantification of biological replicates of immunoblots on samples treated as in (B). Data are shown as mean±SEM of four replicates (n=4).
as §1, with “(n=3).” for “(n=3). In FIG. 12B, iPSC-Heps were pre-treated with 3, 12, and 48 μg/mL of DL-9 for 2 hours, and cells were pulse-labeled with [^35S]methionine for 10 minutes and chased for 120 mins with or without DL-9 treatment; intracellular ^35S-APOB were determined by immunoprecipitation using anti-APOB antibody; band density was quantified and normalized with 5% of input (n=3).”
as §2

With `Sc1nc(S)nc(Nc2ccc(Nc3ccccc3)cc2)n1` (racemic) [DL-1, 6-{[4-(phenylamino)phenyl]amino}-1,3,5-triazine-2,4-dithiol] the “intracellular APOB accumulation” value (Intracellular APOB) was “induced intracellular APOB accumulation independently of mRNA expression and LDL uptake”, the “hepatic character (hepatic marker mRNA, HNF4 and ALB immunofluorescence)” value [1] was “no impact on hepatic characters” and the “APOB mRNA level” value (APOB mRNA) was “no impact on APOB mRNA and intracellular protein levels”.
